First: CCCCc1oc2ccccc2c1C(=O)Nc1ccc2c(Br)c(OC(Cc3ccccc3)C(=O)OC)ccc2c1 (centres undefined)
Second: O=C(c1cc(Br)c(OCP(=O)(O)O)c(Br)c1)c1c(Cc2ccccc2)sc2ccccc12
The melting point of the first is lower: 136 to 139 °C for the first, 210 to 212 °C for the second.

Compared with COc1ccc(/C=C/C(=O)C2C(=O)CC(c3ccc(OC)cc3)C([N+](=O)[O-])C2c2cccs2)cc1 (centres undefined), O=C(O)CCc1cc2cc(Cl)ccc2n1S(=O)(=O)c1ccc(Oc2ccccc2)cc1 is lower in melting point: 160 to 162 °C for the first, 70 to 75 °C for the second.

First: COC(=O)CSC=C1C(=O)OC(C)(C)OC1=O
Second: COc1cc(NC(C)=O)c2c(c1)OC(C)C2 (centres undefined)
The melting point of the first is higher: 117 to 118 °C for the first, 104 °C for the second.

First: CC(=O)O[C@@]12C[C@@H](OC1=O)C(=O)[C@H](O[Si](C)(C)C(C)(C)C)C2
Second: CCC1(COC(=O)C(C)(C)C)COC(=O)C(CC)(CC)N1 (centres undefined)
The melting point of the first is higher: 134 to 137 °C for the first, 37 to 41 °C for the second.

First: CN1C(=O)CNC2=C1C=NC(Cl)=CN2c1ccccc1
Second: CCC1CC(N)=NN1c1ccccc1 (centres undefined)
The melting point of the first is lower: 105 to 107 °C for the first, 123 to 125 °C for the second.

First: CC(=O)ON(C(N)=O)C(C)c1cc2ccccc2s1 (centres undefined)
Second: Cc1nc(Sc2ccccc2)sc1C(=O)O
The melting point of the first is lower: 138 °C for the first, 187 to 188 °C for the second.

First: N#Cc1c(N2CCN(C(=O)c3cccs3)CC2)c2cccnc2[nH]c1=O
Second: O=C(NC1CC1)c1ccc2c(=O)nc(-c3ccccn3)sc2c1
The melting point of the first is higher: 320 °C for the first, 272 to 274 °C for the second.

Compared with CN(C)c1cc2c(=O)n(NS(C)(=O)=O)c(=O)[nH]c2cc1C(F)(F)F, Cn1c(C(F)(F)F)cc(=O)n(C(c2ccc3c(c2)C(=O)NC3=O)c2nsc3ccccc23)c1=O (centres undefined) is lower in melting point: 254 to 272 °C for the first, 204 to 208 °C for the second.

First: CSc1nnc(Sc2cc(C(C)(C)C)c(O)c(C(C)(C)C)c2)s1
Second: Cc1cc(-c2nnc(C(C)(C)C)o2)ccc1[N+](=O)[O-]
The melting point of the first is higher: 144 to 145 °C for the first, 123 to 125 °C for the second.

First: O=C1c2cc(O)ccc2CN1c1ccc2sccc2c1
Second: Cc1ccsc1C=Nc1cc([N+](=O)[O-])ccc1O
The melting point of the first is higher: 226 to 228 °C for the first, 169 to 171 °C for the second.

First: CN1CC(CNC(=N)NC(=O)c2ccccc2)CC2c3cccc4[nH]cc(c34)CC21 (centres undefined)
Second: COC(=O)Oc1ccc(N=C(C#N)c2ccccc2)cc1
The melting point of the first is higher: 190 to 191 °C for the first, 145 to 146 °C for the second.

First: Cc1nnc2cc(C(=O)O)cc(Cl)n12
Second: Cc1cc(C)c2c(c1)cc(C(=O)O)n2CC(=O)OC(C)(C)C
The melting point of the first is higher: 259 to 260 °C for the first, 210 °C for the second.

First: O=C1c2ccccc2C(=O)N1Nc1ccccc1
Second: CC1(c2ccccc2)SC(=S)N(Nc2ccccc2)C1=N (centres undefined)
The melting point of the first is higher: 180 °C for the first, 118 to 119 °C for the second.

First: COC(=O)c1ccc(NC(=O)c2ccc(Br)nc2)nc1
Second: Cc1ccc(C)n1-c1ccc(C(=O)N(C)C)cc1
The melting point of the first is higher: 173 to 174 °C for the first, 102 to 104 °C for the second.

Compared with COc1cccc(OCc2ccc(C(=O)N(C)C3CCCCC3)cc2)c1, CCOC(=O)Cc1ccccc1Oc1ccc(COc2cc(CC)nc3c2CCCC3)cc1 is lower in melting point: 90.4 °C for the first, 89 to 90 °C for the second.

Compared with CCOC(=O)c1nc2c(Cl)nc(Cl)c(Cl)n2c1Cl, CCOC(=O)c1c(-c2ccc(OC)c(OC)c2)c2cc(Cl)ccc2[nH]c1=O is higher in melting point: 132 °C for the first, 209 to 210 °C for the second.

First: Cc1cc(CN2CCC(N(C)S(=O)(=O)c3ccc(Nc4nccc(Nc5ccc(F)c(C)c5)n4)cc3)CC2)no1
Second: CS(=O)(=O)c1ccc(-c2sc(COc3cccc(Cl)c3)nc2-c2ccc(F)cc2)cc1
The melting point of the first is higher: 172 to 173 °C for the first, 128 to 131 °C for the second.

Compared with COC(=O)CCc1ccc(C#CC2(O)CN3CCC2CC3)c(CO)c1 (centres undefined), CCc1nc2c(N)nc3ccccc3c2n1CCC1(O)CCOCC1 is higher in melting point: 35.8 °C for the first, 243 to 244 °C for the second.

First: CCOc1ccc(-c2nc(-c3cccc(N4CCCC4C(=O)O)n3)cs2)cc1OCC (centres undefined)
Second: N=C(N)c1c[nH]c2ccc(CCNC(=O)c3ccc(-c4ccnc(N5CCCC5C(N)=O)n4)cc3)cc12 (centres undefined)
The melting point of the first is higher: 170 to 171 °C for the first, 139 to 141 °C for the second.

Compared with CC(C)(C)OC(=O)C(F)=CC1C(C(=O)OC(C#N)c2cccc(Oc3ccccc3)c2)C1(C)C (centres undefined), BrCCCOc1ccc(Oc2ccccc2)cc1 is lower in melting point: 103 °C for the first, 54 to 55 °C for the second.

First: COc1cc2c(cc1O)CCN(Cc1cccc(C)c1)C2
Second: O=C(OCCc1ccccc1)c1ccc2cc(O)c(O)cc2c1
The melting point of the first is lower: 128 to 129 °C for the first, 175 to 176 °C for the second.

First: CNS(=O)(=O)c1ccc(Nc2nc(N)c(C(=O)c3sccc3C)s2)cc1
Second: COCCOc1ccc(CCC(=O)NS(=O)(=O)c2ccc(OC)cc2)c(Oc2ncc(C(F)(F)F)cc2Cl)c1
The melting point of the first is higher: 197 to 200 °C for the first, 118 to 120 °C for the second.

First: CCOC(=O)c1cccc(C(OC(=O)Nc2ccc3[nH]ncc3c2)[C@@H]2CCCCN2)c1 (some centres undefined)
Second: Nc1ccccc1NC(=O)c1cc2cc(OCCO)ccc2[nH]1
The melting point of the first is lower: 174 °C for the first, 222 to 223 °C for the second.

First: NC(=O)c1sc2nc(N3CCC(NCC(O)c4ccc5c(c4)OCO5)CC3)cc(C(F)(F)F)c2c1N (centres undefined)
Second: O=C1Nc2cc(C(F)(F)F)ccc2C1c1ncnc2c1cnn2C1CCCCC1 (centres undefined)
The melting point of the first is lower: 232 to 234 °C for the first, 277 to 280 °C for the second.

Compared with O=C(O)C(Cl)(Cl)CCCCCCCCCCC#Cc1ccccc1, CCCCCCCCCCCCCC(=O)NCCCSc1ccncc1 is lower in melting point: 155 to 157 °C for the first, 80 to 81 °C for the second.

First: CC(C)(C)Oc1ccc(I)cc1
Second: COc1ccc(COCc2nccn2CCO)cc1
The melting point of the first is lower: 40 to 41.5 °C for the first, 96 to 98 °C for the second.

First: COc1nc(Cl)c(C(C)C)c(OC)n1
Second: COc1nnc(Cl)c2c1CCCC2
The melting point of the first is lower: 23 to 24 °C for the first, 117 to 119 °C for the second.

First: CCCc1c(OCc2ccc(Cc3nnn[nH]3)cc2)ccc(C(C)=O)c1O
Second: Cc1cc(SCc2ccc(OCc3ccc(F)cc3F)cc2)ccc1OCC(=O)O
The melting point of the first is higher: 184 to 187 °C for the first, 139 to 141 °C for the second.

First: C[C@H](CO)Nc1nc(SCc2ccccc2F)nc2[nH]c(=O)cnc12
Second: Clc1nc(-c2nnc(Oc3ccccc3)o2)[nH]c1Cl
The melting point of the first is higher: 203 to 205 °C for the first, 109 °C for the second.

First: CCOC(=O)c1c(CCn2cncn2)nc2sc3c(c2c1-c1ccc(OC)c(OC)c1)CCN(C(=O)c1ccc(Cl)cc1)C3
Second: CCc1ccc(-c2c(Cl)c(CN3C(=O)CCC3=O)nc3sc4c(c23)CCN(C(=O)OCc2ccccc2)C4)cc1
The melting point of the first is higher: 195 to 197 °C for the first, 170 to 171 °C for the second.

Compared with N#Cc1cnc2cc3c(cc2c1Nc1ccc(F)c(Cl)c1)NCCO3, O=[N+]([O-])c1ccc(-c2cc3c(Nc4cccc(Cl)c4)ncnc3[nH]2)cc1 is higher in melting point: 244 to 245 °C for the first, greater than 250 °C for the second.

First: CCCCOCCOc1ccc(-c2cc(/C=C/C(=O)O)c3c(c2)CCCN3C)cc1
Second: CCOC(=O)C(CC)Oc1ccc2c(-c3ccc(Cl)cc3)noc2c1 (centres undefined)
The melting point of the first is higher: 128 to 129 °C for the first, 73 °C for the second.

First: CCOC(=O)/C=C/c1cn(C)nc1OCc1ccc(OCc2nc(-c3ccco3)oc2C)c(OC)c1
Second: Cn1c(-c2ccc(-c3ccco3)cc2)cnc1[C@H](Cc1ccccn1)N(C=O)OC(C)(C)C
The melting point of the first is higher: 135 to 136 °C for the first, 131 to 135 °C for the second.

First: CN(C)S(=O)(=O)c1cc(-c2csc(=Nc3ccc4c(c3)OCO4)n2C)ccc1Cl
Second: COc1ccc(OC)c(S(=O)(=O)N2CCC(N3N=C(c4ccc(OC)c(OC)c4)CCC3=O)CC2)c1
The melting point of the first is lower: 171 to 173 °C for the first, 184 to 185 °C for the second.

First: COc1ccc(-c2cc3cc(F)c(F)cc3[nH]2)cc1NS(=O)(=O)c1cccc([N+](=O)[O-])c1
Second: Cn1cnnc1C(O)(c1ccc(Cl)cc1)c1ccc2c(c1)c(-c1cccc(Cl)c1)cc(=O)n2C (centres undefined)
The melting point of the first is higher: 228 to 230 °C for the first, 182 °C for the second.

Compared with BrCc1ccc2c(c1)C1(c3ccccc3-2)c2ccccc2-c2ccc(CBr)cc21, O=C(O)c1ccc(CN(Cc2cc(Br)ccc2OCc2ccccc2)c2ccc(C(=O)O)cc2)cc1 is higher in melting point: 175 to 177 °C for the first, 271 °C for the second.

First: C=CCc1c(O)ccc2oc(C(=O)c3ccc(F)cc3)c(C)c12
Second: N#Cc1cc(N(CC(=O)O)C(=O)c2cccn2-c2ccc(F)cc2)ccc1N1CCCCC1
The melting point of the first is higher: 164 to 166 °C for the first, 117 to 120 °C for the second.

First: O=C(COc1ccc(-c2ccccc2)cc1)Nc1cscc1C(=O)O
Second: O=C(Nc1ccc(-n2nc(C(F)(F)F)cc2C(F)(F)F)cc1)c1ccccc1
The melting point of the first is higher: 247 to 251 °C for the first, 177 to 178 °C for the second.

First: NN1C(=O)c2ccc(Cl)cc2C1=O
Second: Cc1cc(-c2nn(CC(C)C)c(=O)c(O)c2C)ccc1F
The melting point of the first is higher: 172 to 175 °C for the first, 107 to 110 °C for the second.

First: COc1ccc(N2CCN(c3ccc(N4C(=O)C5CCCCN5C4=O)cc3)CC2)cc1 (centres undefined)
Second: O=C1CCC(N2C(=O)c3cccc(OCc4ccc(CN5CCC(c6ccc(F)cc6F)CC5)cc4)c3C2=O)C(=O)N1 (centres undefined)
The melting point of the first is higher: 223 °C for the first, 153 to 155 °C for the second.

Compared with CCCCCCCCCCCCCCCCCCCCOC(=O)P(=O)(O)O, O=C(O)CC[C@@H](Cc1cn(CCCc2ccccc2)c2ccccc12)NC(=O)CCCCCCc1ccccc1 is higher in melting point: 87 to 89 °C for the first, 100 to 102 °C for the second.

Compared with CCCCCCc1cc(SC)ccc1O, CCn1c(=O)c2c(nc(/C=C/c3ccc(O)c(O)c3)n2C)n(CC)c1=O is higher in melting point: 42 to 44 °C for the first, 248 °C for the second.

First: CON=CNC(=O)c1ccc(C=NO)cc1C
Second: O=C(C=Cc1cc(O)c(O)c([N+](=O)[O-])c1)c1ccccc1
The melting point of the first is lower: 88 to 91 °C for the first, 192 to 195 °C for the second.

Compared with Cc1c(-c2ccc(OCc3ccccc3)cc2)n(Cc2ccc(OCCCN3CCCCC3)cc2)c2ccc(OCc3ccccc3)cc12, CC1(C)CCC(C)(C)c2cc(C(=O)c3ccccc3C(=O)N(CCO)CCO)ccc21 is higher in melting point: 104 to 106 °C for the first, 116 °C for the second.

Compared with Cc1nn2cccnc2c1C#N, Nc1ccnn1-c1c(F)cc(C(F)(F)F)cc1Cl is lower in melting point: 179 to 181 °C for the first, 87 to 90 °C for the second.

First: CNC(=O)N1CC(Oc2ccccc2Cl)C1
Second: CC(C)(C)OC(=O)COc1cc(NC(=O)OC(C)(C)C)c(N)cc1-c1ccc(F)cc1
The melting point of the first is higher: 130 to 132 °C for the first, 30 to 33 °C for the second.

First: CNC(=O)c1c(NC(=O)CCl)c(OC)c(C(=O)NC)c([N+](=O)[O-])c1OC
Second: CC(=O)OC1CSC(Oc2ccc(-c3c(C)n[nH]c3C)nc2)C(OC(C)=O)C1OC(C)=O (centres undefined)
The melting point of the first is higher: 259 to 260 °C for the first, 154 °C for the second.

First: CCNc1nc(NCC)nc(NCC)n1
Second: CC(C)(CNC(=O)CCCC(=O)O)SN=O
The melting point of the first is lower: 74 °C for the first, 104 to 107 °C for the second.

First: O=C(O)c1ccc2c(c1)C(=C(Cl)Cl)OC(=C(Cl)Cl)O2
Second: CCOC(=O)C(=O)c1scc(Br)c1Br
The melting point of the first is higher: 199 to 200 °C for the first, 71 °C for the second.

CSc1n[nH]c(=O)n1C showed a melting point of 97 °C.
